Tests used:
S. aureus on pig skin = assay: antimicrobial activity against S. aureus on pig skin (swab, CFU counting, log kill); assay type: cell-based, Staphylococcus aureus (Oxford); conditions: Example 3; 2 hours after application; inoculum 7.6 (7.62 = complete kill)
Method: Staphylococcus aureus (Oxford); Gram positive; Reference strain.
Bacterial cultures were prepared by inoculation of 10 ml of nutrient broth with a single colony of bacteria on blood agar or TSA and incubated at 37° C. with continuous shaking at 100 rpm for 16 to 24 hours. The overnight cultures were used for experimental tests.
For CFU counting, the bacterial suspensions were diluted using sterile deionized water or phosphate-buffered saline (PBS, Sigma Aldrich Ltd, Poole, Dorset, UK). 100 μl of 10-fold serial dilutions of bacteria culture were plated on one third of TSA plates in triplicate and incubated 24 to 48 hours at 37° C. The number of cells presented on the plates was counted using an AcoLyte colony counter (Synbiosis) and results were expressed as Colony Forming Units/ml (CFU/ml).
The efficacy of each of the above formulations F017A, F017B and F019 was assessed against S. aureus on pig skin. The S. aureus culture was grown overnight according to methods known in the art. The overnight culture was then spread on pig skin: 40 μl of culture was used for 2 cm^3 of pig skin. Each of the formulations F017A, F017B and F019 was then applied to the pig skin.
After 2 hours and 5 hours from application of each formulation, the pig skin was swabbed and bacteria on the swab were processed for CFU counting. The results for F017A, F017B and F019 against a control experiment (where no triple combination was applied to the pig skin) and against commercially available products Bactroban® cream (mupirocin) and Naseptin® (chlorhexidine and neomycin) are shown in FIG. 1.
The efficacy of each of the above formulations F017A, F017B and F019 was again assessed against S. aureus on pig skin. The S. aureus culture was grown overnight according to methods known in the art. The overnight culture was then spread on pig skin: 40 μl of culture was used for 2 cm^3 of pig skin. […]
The efficacy of each of the above formulations F017A, F022A, F022B, F022C, F022D, F022E, F022F, and F022G was assessed against S. aureus on pig skin. […]

[1] = tested on: clinically latent microorganisms; assay: screening for ability to kill clinically latent microorganisms (WO2000028074 method); assay type: cell-based
From the text: International Patent Application, Publication Number WO2000028074 describes a method of screening compounds to determine their ability to kill clinically latent microorganisms. […] This observation has necessitated the development of novel antimicrobials which may be used to kill clinically latent microorganisms.
By way of example, WO2000028074 describes a suitable method of screening compounds to determine their ability to kill clinically latent microorganisms. A typical method may include the following steps: • (1) growing a bacterial culture to stationary phase; • (2) treating the stationary phase culture with one or more antimicrobial agents at a concentration and or time sufficient to kill growing bacteria, thereby selecting a phenotypically resistant sub-population; • (3) incubating a sample of the phenotypically resistant subpopulation with one or more test compounds or agents; and • (4) assessing any antimicrobial effects against the phenotypically resistant subpopulation.

Row | Compound | Log Kill 2 h (S. aureus on pig skin) | activity against clinically latent microorganisms [1]
1 | Cc1nc2ccc(Oc3ccccc3)cc2c2c1CCN2CCc1ccccc1 [HT61, 4-methyl-8-phenoxy-1-(2-phenylethyl)-2,3-dihydro-1H-pyrrolo[3,2-c]quinoline] | 1.87 | 
2 | C/C(=C\C(=O)OCCCCCCCCC(=O)O)C[C@@H]1OC[C@H](C[C@@H]2O[C@H]2[C@@H](C)[C@H](C)O)[C@@H](O)[C@H]1O [mupirocin] | 0.49 | little or no activity
3 | neomycin | 4.56 | little or no activity
